Measurements as given in patent publication US9707200B2, “Metabolism-improving agent comprising rare fatty acid” (KYOTO UNIVERSITY, priority 2012, dated 2017).

Columns and labels:
[1] = biological target: T1, PPARγ (Homo sapiens, UniProt P37231); experiment: PPARγ ligand activity, GAL4-PPARγ reporter luciferase assay in CV-1 cells; type: cell-based; conditions: 24 hr incubation, KetoA and HYA each at 30 μM, other fatty acids by a similar method
T1 construct: expressed in transfected cells; host or cells: CV-1 (African green monkey kidney)
T1 sequence (P37231 238-503 limits assumed): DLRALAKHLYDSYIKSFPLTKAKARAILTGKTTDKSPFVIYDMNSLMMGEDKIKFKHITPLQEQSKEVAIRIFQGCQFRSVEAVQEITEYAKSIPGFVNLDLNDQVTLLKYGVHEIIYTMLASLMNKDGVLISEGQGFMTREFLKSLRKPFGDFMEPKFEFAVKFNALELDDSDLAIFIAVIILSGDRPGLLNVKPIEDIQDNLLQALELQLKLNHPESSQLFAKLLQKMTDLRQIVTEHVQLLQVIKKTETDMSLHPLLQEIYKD
Protocol: To evaluate the function of oxo fatty acid and the like, PPARα, γ-activating action was measured first. The measurement was performed in reference to Nobuyuki Takahashi et al., FEES Letters 514 (2002) p. 315-322, “Dual action of isoprenols from herbal medicines on both PPARgamma and PPARalpha in 3T3-L1 adipocytes and HepG2 hepatocytes.”, the section of Materials and Methods “Reporter plasmids and luciferase assays”. To be specific, a plasmid containing DNA encoding a fused protein of PPARα, γ ligand binding region and GAL4 DNA binding region (pM-hPPARα or pM-hPPARγ), a reporter plasmid containing GAL4 binding DNA sequence linked to luciferase (p4xUASg-tk-luc), and internal control (pRL-CMV) to standardize transfection efficiency were introduced into CV-1 cell derived from the kidney of African green monkey. The ligand described below was added to the cells and, after incubation for 24 hr, luciferase activity was measured. As a ligand, KetoA and HYA were each added at 30 μM.
The concentration of the sample was adjusted with ethanol. Ethanol was used as a negative control, […], and GW7647 (10 nM) and Troglitazone (5 μM) were used as […].

[2] = system: HepG2 cells; experiment: Effect on LXR agonist-induced expression of fatty acid synthesis genes, real-time PCR; type: cell-based, human; conditions: 10 nM T0901317 + 60 μM fatty acid, 24 hr
Protocol: Using human liver cancer-derived HepG2 cells (cell No.; JCRB1054, the Health Science Research Resources Bank), a suppressive effect on fatty acid synthesis promotion induced by LXR agonist was evaluated by reference to the method of Zaima et al. (Journal of Lipid Research 47, 2712-2717, 2006).
(§1) HepG2 cells (2.0×10^5 cells/mL) were cultured in DMEM medium containing 10% FES for 24 hr, and the medium was exchanged with 0.1% BSA-containing DMEM medium containing 10 nM LXR agonist T0901317 (Cayman Chemicals) and 60 μM various fatty acid. After culture for 24 hr, the cells were recovered, and total RNA was extracted using Sepasol reagent (Nacalai Tesque). After DNase treatment, reverse transcription was performed using SuperScriptII (Invitrogen) to give a cDNA solution. Using SYBR Green Mix (Bio-Rad, Richmond, Calif.) and gene-specific primer (Table 1), real-time PCR was performed as follows.
(§2) 1. Reaction at 96° C., 15 min, 2. reaction at 96° C., 15 sec, 3. reaction at 60° C. for 30 sec, 4. measurement of fluorescence, 5. 2-4 were repeated 40 times, 6. the melting curve was measured from 65° C. to 95° C. at 0.4° C. intervals. As the internal standard, 18S rRNA was used. The genes involved in the fatty acid synthesis as measured were Sterol regulatory element binding protein-1c (SREBP-1c), Stearoyl coenzyme A desaturase-1 (SCD-1), Fatty acid synthase (FAS), and Acetyl CoA carboxylase-1 and -2 (ACC-1, 2). As for the amount of accumulated intracellular TG, the lipid was extracted with chloroform-methanol, and quantified by triglyceride-′E Test Wako (Wako Pure Chemical Industries, Ltd.).

[3] = system: HepG2 cells; experiment: Immature and mature SREBP-1 protein expression induced by LXR agonist, Western blot; type: cell-based, human; conditions: 10 nM T0901317 + 60 μM fatty acid, 24 hr; for immature SREBP-1 expression induced by LXR agonist: membrane fraction; for mature SREBP-1 expression induced by LXR agonist: nuclear fraction
Protocol: as §1
In addition, the protein expression level of immature and mature SREBP-1c was measured. Cells treated as mentioned above were dispersed in buffer A (250 mM sucrose, 10 mM HEPES-KOH, 10 mM KCl, 1.5 mM MgCl2, 1 mM EDTA-Na, 1 mM EGTA-Na, pH 7.6) containing a protease inhibitor, passed 20 times through a 23 gauge injection needle, and centrifuged (1,000×g, 4° C., 5 min) to separate into supernatant 1 and precipitate 1. The precipitate 1 was re-dissolved in buffer B (20 mM HEPES-KOH, 0.42 M NaCl, 2.5% glycerol, 1.5 mM MgCl2, 1 mM EDTA-Na, 1 mM EGTA-Na, pH 7.6), and centrifuged (10^5×g, 4° C., 15 min). The obtained supernatant 2 was used as a nuclear fraction (including mature form). The supernatant 1 was further centrifuged (10^5×g, 4° C., 15 min), and the obtained precipitate 2 was dissolved in cell lysate (10 mM Tris-HCl, 100 mM NaCl, 1% SDS, 1 mM EDTA-Na, 1 mM EGTA-Na) and used as a membrane fraction (including immature form). Using these as samples, measurement was performed by Western blot method using anti-SREBP-1 polyclonal antibody (Santa Cruz). Using Dual luciferase system (Promega), antagonizing action on LXR was evaluated by luciferase assay. p3xIR1-tk-Luc, pCMX-hLXRa, pRL-CMX were introduced into HepG2 cell. After culture in a 0.1% BSA-containing serum-free medium containing various fatty acids and T0901317 for 24 hr, the luciferase activity was measured.

[4] = system: HepG2 cells; experiment: Intracellular triacylglycerol accumulation by LXR agonist; type: cell-based, human; conditions: 10 nM T0901317 + 60 μM fatty acid, 24 hr
Protocol: as §1, §2

Structure (SMILES)	PPARγ agonist activity (relative luciferase activity) [1]	ACC1 mRNA expression induced by LXR agonist [2]	ACC2 mRNA expression induced by LXR agonist [2]	FAS mRNA expression induced by LXR agonist [2]	SCD-1 mRNA expression induced by LXR agonist [2]	suppression of SREBP-1c mRNA expression induced by LXR agonist [2]	immature SREBP-1 expression induced by LXR agonist [3]	mature SREBP-1 expression induced by LXR agonist [3]	suppression of intracellular triacylglycerol increase by LXR agonist [4]
CCCCC/C=C\CC(=O)CCCCCCCCC(=O)O [KetoA, 10-oxo-cis-12-octadecenoic acid]	strong PPARα and γ agonist activity	down regulation	down regulation	down regulation	down regulation	strong suppressive action	strongly suppressed	strongly suppressed	significantly suppressed
CCCCC/C=C\CC(O)CCCCCCCCC(=O)O (stereo not drawn) [HYA, 10-hydroxy-cis-12-octadecenoic acid]	some PPARγ agonist activity	down regulation	down regulation	down regulation	down regulation	strong suppressive action	strongly suppressed	strongly suppressed	significantly suppressed
